# Measurements: publication PMC7663103, “Homo-Tris-Nitrones Derived from α-Phenyl-N-tert-butylnitrone: Synthesis, Neuroprotection and Antioxidant Properties” (International Journal of Molecular Sciences, 2020)
# Target: T1, soybean lipoxygenase (Glycine max, UniProt P08170)
# T1 construct: gene LOX1.1
# T1 sequence (P08170 1-839): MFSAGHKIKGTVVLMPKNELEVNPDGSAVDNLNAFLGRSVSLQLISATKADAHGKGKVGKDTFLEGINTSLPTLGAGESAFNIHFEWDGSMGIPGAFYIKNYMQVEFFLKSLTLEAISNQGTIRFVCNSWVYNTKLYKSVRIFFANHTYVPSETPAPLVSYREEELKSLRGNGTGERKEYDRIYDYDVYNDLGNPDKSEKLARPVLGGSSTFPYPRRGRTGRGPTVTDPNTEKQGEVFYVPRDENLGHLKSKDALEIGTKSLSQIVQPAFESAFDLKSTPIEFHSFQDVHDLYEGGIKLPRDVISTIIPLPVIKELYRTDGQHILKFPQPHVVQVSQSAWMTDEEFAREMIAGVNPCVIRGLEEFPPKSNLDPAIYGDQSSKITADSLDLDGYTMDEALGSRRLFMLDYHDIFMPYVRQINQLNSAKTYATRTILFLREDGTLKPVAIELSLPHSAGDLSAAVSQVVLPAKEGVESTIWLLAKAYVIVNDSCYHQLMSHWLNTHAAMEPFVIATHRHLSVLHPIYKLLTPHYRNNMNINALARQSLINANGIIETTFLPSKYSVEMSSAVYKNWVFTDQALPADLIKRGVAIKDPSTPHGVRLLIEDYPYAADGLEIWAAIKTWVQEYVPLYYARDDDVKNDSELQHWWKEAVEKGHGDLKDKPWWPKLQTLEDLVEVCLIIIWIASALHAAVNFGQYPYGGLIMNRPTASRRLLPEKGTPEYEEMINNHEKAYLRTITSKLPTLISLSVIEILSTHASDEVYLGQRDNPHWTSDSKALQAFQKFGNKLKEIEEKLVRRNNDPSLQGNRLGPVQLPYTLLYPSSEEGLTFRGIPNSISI
# Assay: UV assay of sodium linoleate conversion to 13-hydroperoxylinoleic acid at […] nm
# Format: biochemical
# Conditions: read-out: LOX Inhibition (% or IC50 [μM]) (±SEM)
row,SMILES,IC50 [µM]
1,"C/[N+]([O-])=C/c1cc(/C=[N+](/C)[O-])cc(/C=[N+](/C)[O-])c1 [HTN1, (1. Z,1′Z,1″Z)-1,1′,1″-(Benzene-1,3,5-triyl)tris(N-methylmethanimineoxide)]",100 ± 1.1
2,"[O-]/[N+](=C\c1cc(/C=[N+](\[O-])Cc2ccccc2)cc(/C=[N+](\[O-])Cc2ccccc2)c1)Cc1ccccc1 [HTN3, (1. Z,1′Z,1″Z)-1,1′,1″-(Benzene-1,3,5-triyl)tris(N-benzylmethanimineoxide)]",70 ± 2.6
